pIC50: −log10 of the molar value. Square brackets hold non-standard residues; d marks the D form. * marks the point of attachment. Cyclopropanecarbonyl = O=C(C1CC1)*; Nle = CCCC[C@H](N)C(=O)O
Key:
Rat FPR = target: T1, Rat FPR (Rattus norvegicus, UniProt D4A7Q2); experiment: Competition binding with 6 nM 3H-fMLF to elicited rat PMNs
T1 construct: endogenous in cells; host or cells: glycogen-elicited peritoneal neutrophils (PMNs) of Sprague-Dawley rats
T1 sequence (D4A7Q2 1-355): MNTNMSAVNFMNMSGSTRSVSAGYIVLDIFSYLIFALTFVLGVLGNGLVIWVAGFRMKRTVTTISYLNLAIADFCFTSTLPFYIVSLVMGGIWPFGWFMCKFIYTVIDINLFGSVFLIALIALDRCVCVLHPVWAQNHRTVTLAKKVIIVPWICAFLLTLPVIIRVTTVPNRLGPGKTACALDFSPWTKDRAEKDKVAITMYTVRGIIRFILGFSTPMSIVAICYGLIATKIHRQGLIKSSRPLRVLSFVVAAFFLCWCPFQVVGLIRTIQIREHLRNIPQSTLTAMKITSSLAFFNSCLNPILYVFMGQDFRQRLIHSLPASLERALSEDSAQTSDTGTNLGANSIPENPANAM
Description: Animals were sacrificed via administration of CO2 4 hours following peritoneal injection of 10 mL of 0.5% (w/v) oyster glycogen warmed to room temperature. Leukocyte harvesting via peritoneal lavage was performed using 20 mL of Hanks' buffered salt solution (HBSS−) containing 10 mM ethylene-diaminetetra-acetic acid (EDTA) disodium salt followed by a second lavage with 10 mL of HBSS− containing 10 mM EDTA. Exactly the same technique was performed on all rats with washes of the peritoneum prior to aspiration of samples approximating 1 minute. The volume of fluid recovered from each rat was approximately 20-25 mL and bloody lavages visibly containing significant red blood cell (RBC) populations were discarded.
Neutrophils isolated by peritoneal lavage were washed twice with 1 mL of HBSS− (without calcium chloride, magnesium chloride and magnesium sulfate) and centrifuged for ten minutes at 2000 rpms following each wash. PMNs utilized in functional assays were centrifuged at 25° C. while those used in binding assays were centrifuged at 4° C. to prevent internalization. A cold H2O RBC lysis was then performed with the addition of 9 mL of sterile ice-cold H2O and 1 mL of phosphate buffered saline (PBS) solution containing 0.1 M phosphate buffer, 0.027 M KCl and 1.37 M NaCl following resuspension of the sample in 1 mL of HBSS. Centrifugation was subsequently performed for ten minutes at 1600 rpms. White blood cell (WBC) differential stain containing saline, 2% acidic acid and phenol violet dye was used to identify the neutrophil population and trypan blue exclusion was used to determine viability of cells. As previously reported, 98% of leukocytes were neutrophils and approximately 95% of the cells were viable (Chen et al., 1996).
Competition binding assays for N-terminal capping groups and Re-libraries were conducted with 6 nM ^3H-fMLP in addition to the unlabelled competing analogue added at 1.0 uM and 10 uM to each well. […] Total binding in the competition assays was assessed in the presence of 1.0×10^6 PMNs per sample while non-specific binding was determined in the absence of cells. Each condition was performed in quadruplicate. Total activity added to each sample was determined from cpms obtained from a sample containing 6 nM ^3H-fMLF. Data was expressed as specific binding in fmols and converted to percent of total ^3H-fMLF binding (% control).
After a 1 hour incubation period at 4° C., the samples were harvested with the Tomtec Mach III Cell Harvester by vacuum aspiration onto 1.5 um pore size Skatron glass-fibre filter mats pre-treated with 0.1% polyethylenimine (w/v) for approximately 24 hours. Sample wells received three consecutive 12 second washes with 0.9% saline solution and 5 mL of liquid scintillation fluid was added to collected filters. Filters were counted for 2 minutes in the Beckman β-counter following exposure to scintillation fluid for 15 hours. Data was expressed in terms of specific binding in fmols converted to percent of total ^3H-fMLF binding (% control).
The curve-fitting program Prism was used to calculate KD, IC50 and EC50 values by fitting data to the one-site binding equations A, B and C respectively. • A. Equation: One site binding (hyperbola) Y=Bmax*X/(KD+X) • B. Equation: One site competition Y=Bottom+(Top−Bottom)/(1+10^(X−LogIC50)); with x=log (concentration) and y=binding • C. […] Additionally, Graph fit software was used to perform Scatchard analysis of saturation binding data and to confirm KD and Bmax values generated by Prism software.

human neutrophils = experiment: Myeloperoxidase release from human neutrophils; assay type: cell-based; conditions: result in words; for inhibition of MPO release in fMLF-stimulated human neutrophils (FIG. 4): 10 uM compound, fMLF 10^−8 M and 10^−6 M, p<0.05; for stimulation of MPO release by the compound itself in human neutrophils: up to 10 uM compound, low fMLF (10^−14M, 10^−12M)
Description: Approximately 30 mL of venous blood was collected from healthy volunteers with 100 units of heparin per mL of blood. Samples were then mixed with 8 mL of 6% dextran solution and incubated at 37° C. for 1 hour for RBC sedimentation. Leukocyte-rich plasma was collected and centrifuged at 1500 rpm for 5 minutes. Cell pellets were resuspended in 35 mL of saline and 10 mL of lymphocyte separation medium was layered over prior to additional centrifugation at 1200 rpm for 30 minutes. Sedimented cells were washed once with 35 mL of saline and RBCs were lysed by resuspension in 1.8 mL of sterile H2O for 15 seconds. Isotonicity was restored with the addition of 0.2 mL of 10×HBSS− followed by the addition of 35 mL of saline. Centrifugation at 1500 rpm for 5 minutes was then performed. Following final washing of the PMN pellet with 35 mL of saline, cell viability was determined via trypan blue exclusion and cell number was determined.
0.5×10^6 PMNs per sample were incubated in 96-well Millipore Multiscreen 0.65 um filter plates. In a final volume of 150 uL, 50 uL of the respective fMLP analogues (10 uM to 1 pM) and/or fMLP ([…]) were incubated with isolated PMNs pre-treated with cytochalasin B (5 ug/mL) for 10 minutes. Following a 30 minute incubation period at room temperature, the supernatant was collected into a 96-well polypropylene plate with the Millipore vacuum apparatus. A stock solution of o-phenylenediamine (OPD) was made to contain 2.5 mg of OPD, 5 ul of H2O2 and 10 mL HBSS+ and supernatant samples were subsequently incubated with 50 uL of OPD solution. The reaction was stopped after 2 minutes by the addition of 2.5M H2SO4. Photometric analysis was performed with the Thermomax Microplate Reader with optical density (O.D.490) values being read at a wavelength of 490 nm. Absorbance was measured against a blank containing 150 μl of HBSS+ which was subtracted from wells containing cells and the various treatments. MPO release was expressed as a percentage of the total release of myeloperoxidase in control wells containing cells ±fMLF.

## ReO-CyclopropylCONH-nleu-leu-phe-trp-glu-lys(dimethylgly-t-butylgly-cys-gly)-gly-OH (Cyclopropanecarbonyl-[Nle]LFWEKG-OH; not fully specified (residue 6); printed as ReO-CyclopropylCONH-nleu-leu-phe-trp-glu-lys(dimethylgly-t-butylgly-cys-gly)-gly-OH; also: ReO chelate on Lys side chain) [ReORP553 17-01]
Rat FPR; from rat FPR IC50 values
  binding affinity, fold greater than N-t-BocMLF: approximately 12 fold
Human neutrophils
  inhibition of MPO release in fMLF-stimulated human neutrophils (FIG. 4): significantly inhibited the release of MPO
  stimulation of MPO release by the compound itself in human neutrophils: did not stimulate MPO release

## CSCC[C@H](NC(=O)OC(C)(C)C)C(=O)N[C@@H](CC(C)C)C(=O)N[C@@H](Cc1ccccc1)C(=O)O [N-t-BocMLF, N-tert-butyloxycarbonylated-methionyl-leucyl-phenylalanine, reference compound]
Rat FPR; elicited rat PMNs, 6 nM 3H-fMLF, 4° C. 1 hour, brackets = 95% confidence interval, read-out: Receptor Binding (IC50)
  pIC50: 5.03
Human neutrophils
  inhibition of MPO release in fMLF-stimulated human neutrophils (FIG. 4): inhibited MPO release from fMLF stimulated cells
  stimulation of MPO release by the compound itself in human neutrophils: did not induce release
